The source of these data is US10800725B2, “Arylpropionyl-triketone antibacterial agents” (priority 2010, dated 2020).

Assay [1] deals with Moraxella catarrhalis ATCC 25238. Nature of the assay: MIC, spiral gradient endpoint assay (GC II agar, 5% CO2). The following applies: ATCC25238, read-out: MIC M. catarrhalis 25238.
For assay [2], the system named is Staphylococcus aureus BAA-1717 MRSA (USA300). Nature of the assay: MIC, spiral gradient endpoint assay. Particulars: read-out: MIC S. aureus MRSA 1717.
Assay [3] relates to Francisella tularensis SCHU4. Nature of the assay: microbe, parasite or virus in culture. It is filed as cell-based. Particulars: SCHU4, read-out: MIC F. tularensis SCHU4.
The subject of assay [4] is Staphylococcus aureus ATCC 12600. Description: MIC, spiral gradient endpoint assay. Particulars: ATCC12600, read-out: MIC S. aureus 12600.
Assay [5] concerns the target E. coli RNA polymerase σ70 holoenzyme (Escherichia coli (strain K12), UniProt P0A8T7+P0A8V2). Description: Fluorescence-detected RNA polymerase assay, E. coli RNAP. It is filed as biochemical. How it is done: (§1) Fluorescence-detected RNA polymerase assays with E. coli RNA polymerase were performed by a modification of the procedure of Kuhlman et al., 2004 [Kuhlman, P., Duff, H. & Galant, A. (2004) A fluorescence-based assay for multisubunit DNA-dependent RNA polymerases. Anal. Biochem. 324, 183-190]. Reaction mixtures contained (20 μl): 0-100 nM test compound, 75 nM E. coli RNA polymerase σ^70 holoenzyme, 20 nM 384 bp DNA fragment containing the bacteriophage T4 N25 promoter, 100 μM ATP, 100 μM GTP, 100 μM UTP, 100 μM CTP, 50 mM Tris-HCl, pH 8.0, 100 mM KCl, 10 mM MgCl2, 1 mM DTT, 10 μg/ml bovine serum albumin, and 5.5% glycerol. Reaction components other than DNA and NTPs were pre-incubated for 10 min at 37° C. Reactions were carried out by addition of DNA and incubation for 5 min at 37° C., followed by addition of NTPs and incubation for 60 min at 37° C. DNA was removed by addition of 1 μl 5 mM CaCl2 and 2 U DNaseI (Ambion, Inc.), followed by incubation for 90 min at 37° C. RNA was quantified by addition of 100 μl RiboGreen RNA Quantitation Reagent (Invitrogen, Inc.; 1:500 dilution in Tris-HCl, pH 8.0, 1 mM EDTA), followed by incubation for 10 min at 25° C., followed by measurement of fluorescence intensity [excitation wavelength=485 nm and emission wavelength=535 nm; QuantaMaster QM1 spectrofluorometer (PTI, Inc.)]. IC50 is defined as the concentration of inhibitor resulting in 50% inhibition of RNA polymerase activity.

For assay [6], the system named is Bacillus anthracis Vollum-1b. Description: microbe, parasite or virus in culture. It is filed as cell-based. Particulars: VOLLUM1B, read-out: MIC B. anthracis Vollum-1b.
In assay [7] the test system is Escherichia coli D21f2tolC. Description: MIC, spiral gradient endpoint assay. Particulars: read-out: MIC E. coli D21f2tolC.
Assay [8] deals with Streptococcus pneumoniae ATCC 49619. Description: MIC, spiral gradient endpoint assay (GC II agar, 5% CO2). Particulars: ATCC49619, read-out: MIC S. pneumoniae 49619.
In assay [9] the target is S. aureus RNA polymerase core enzyme + σA (Staphylococcus aureus (strain NCTC 8325 / PS 47), UniProt P47768+Q2G0N5). Nature of the assay: Fluorescence-detected RNA polymerase assay, S. aureus RNAP. It is filed as biochemical. How it is done:
as §1
Fluorescence-detected RNA polymerase assays with S. aureus RNA polymerase were performed as in Example 21.1, using reaction mixtures containing (20 μl): 0-100 nM test compound, 75 nM S. aureus RNA polymerase core enzyme, 300 nM S. aureus σ^A, 20 nM 384 bp DNA fragment containing the bacteriophage T4 N25 promoter, 100 μM ATP, 100 μM GTP, 100 μM UTP, 100 μM CTP, 40 mM Tris-HCl, pH 8.0, 80 mM NaCl, 5 mM MgCl2, 2.5 mM DTT, and 12.7% glycerol. IC50 is defined as the concentration of inhibitor resulting in 50% inhibition of RNA polymerase activity.

Assay [10] concerns Enterococcus faecalis ATCC 19433. Description: MIC, spiral gradient endpoint assay. The following applies: ATCC19433, read-out: MIC E. faecalis 19433.
In assay [11] the test system is Mycobacterium tuberculosis H37Rv. Nature of the assay: MIC, microplate Alamar Blue assay. The following applies: read-out: MIC M. tuberculosis H37Rv. For orientation: Resazurin is reduced to fluorescent resorufin, in cell work by metabolically active cells.
Assay [12] concerns Enterococcus faecium ATCC 19434. Nature of the assay: MIC, spiral gradient endpoint assay. The following applies: ATCC19434, read-out: MIC E. faecium 19434.
Assay [13] has as its system Staphylococcus aureus ATCC 13709 MSSA. Nature of the assay: MIC, spiral gradient endpoint assay. The following applies: read-out: MIC S. aureus 13709.
Assay [14] has as its target M. tuberculosis RNA polymerase core enzyme + σA (Mycobacterium tuberculosis (strain ATCC 25618 / H37Rv), UniProt P9WGY7+P9WGY9). Nature of the assay: Fluorescence-detected RNA polymerase assay, M. tuberculosis RNAP. The class given is biochemical. How it is done:
as §1
Fluorescence-detected RNA polymerase assays with M. tuberculosis RNA polymerase were performed as in Example 21.1, using reaction mixtures containing (20 μl): 0-100 nM test compound, 75 nM M. tuberculosis RNA polymerase core enzyme, 300 nM M. tuberculosis σ^A, 20 nM 384 bp DNA fragment containing the bacteriophage T4 N25 promoter, 100 μM ATP, 100 μM GTP, 100 μM UTP, 100 μM CTP, 40 mM Tris-HCl, pH 8.0, 80 mM NaCl, 5 mM MgCl2, 2.5 mM DTT, and 12.7% glycerol. IC50 is defined as the concentration of inhibitor resulting in 50% inhibition of RNA polymerase activity.

In assay [15] the test system is Streptococcus pyogenes ATCC 12344. Nature of the assay: MIC, spiral gradient endpoint assay (GC II agar, 5% CO2). Particulars: ATCC12344, read-out: MIC S. pyogenes 12344.
The test system of assay [16] is Staphylococcus aureus BAA-1707 MRSA (MW2). Nature of the assay: MIC, spiral gradient endpoint assay. Particulars: read-out: MIC S. aureus MRSA 1707.

Values after ≈ are worked out from the molar mass of the structure shown.

As usually defined, the IC50 is the concentration at which inhibition is half-maximal.

For `CC(C)CCC1=C(O)C(CCC(C)C)(CCC(C)C)C(=O)C(C(=O)C(C)Cc2ccccc2)=C1O` (stereo not shown) [Compound 20, 3,5-dihydroxy-2-(2-methyl-3-phenylpropanoyl)-4,6,6-triisopentylcyclohexa-2,4-dienone], the MIC in assay [1] was 24 µg/mL (≈ 49.7 µM); in [2], 0.7 µg/mL (≈ 1.45 µM); in assay [3] it was 0.78 µg/mL (≈ 1.62 µM); in [4] it was 0.4 µg/mL (≈ 0.829 µM); in assay [6], 0.098 µg/mL (≈ 0.203 µM); in assay [7] it was 6 µg/mL (≈ 12.4 µM). The MIC was found to be 19 µg/mL (≈ 39.4 µM) in assay [8]; 0.7 µg/mL (≈ 1.45 µM) in [10]; 50 µg/mL (≈ 104 µM) in assay [11]; 0.6 µg/mL (≈ 1.24 µM) in [12]; 0.7 µg/mL (≈ 1.45 µM) in [13]; 15 µg/mL (≈ 31.1 µM) in assay [15]. Besides, the MIC in assay [16] worked out at 0.7 µg/mL (≈ 1.45 µM). In addition, the IC50 stood at 12 µM in [5], 13 µM in assay [9] and 7.3 µM in assay [14].
